Data from patent US10457709B2, “Antimicrobial peptides, their variants and uses” (priority 2015, dated 2019).
Converted amounts (≈) assume the structure as drawn. Ends that are not written are not given here.

Experiments:
[1] = test system: Klebsiella pneumoniae (ATCC 10031); assay: microbe, parasite or virus in culture; type: cell-based
Procedure: (§1) Minimum inhibition concentrations (MICs) were determined against Escherichia coli (ATCC 25922), Staphylococcus aureus (ATCC 25923), Klebsiella pneumoniae (ATCC 10031) and Pseudomonas aeruginosa (ATCC 27853). Also clinical strains of E. coli, K. pneumoniae, E. cloacae, P. aeruginosa, Serratia marcescens, Proteus mirabilis, S. pneumoniae, Acinetobacter baumannii, A. johnsonii and S. aureus were used for MICs assays. Additionally, clinical strains of yeast including Candida albicans, C. glabrata, C. parapsilosis and C. quillermondiae were used. The susceptibility of these microorganisms to Chain peptides were determined using micro broth dilution assay. Colonies of the respective microorganism from Muller Hinton (MH) agar plates incubated overnight were suspended in MH broth media and final concentration of microorganism was adjusted to 5.0×10^5 cfu/ml. An aliquot of 10 μl of each Chain peptide, or gentamicin, tetracycline as reference antibiotics were added in differing concentrations along with 90 μl of bacterial suspension to 96 well polypropylene plates and incubated at 37° C. for 20 to 24 hours. Concentrations of Chain peptides and reference antibiotics ranged from 0.125 to 128 μg/ml and the MICs were recorded as the lowest concentration with no visual growth of bacteria. Similarly, antifungal MICs were tested in Potato dextrose broth.

[2] = test system: Staphylococcus aureus (ATCC 25923); assay: microbe, parasite or virus in culture; type: cell-based
Procedure: as §1

[3] = test system: Escherichia coli (ATCC 25922); assay: microbe, parasite or virus in culture; type: cell-based
Procedure: as §1

[4] = test system: Pseudomonas aeruginosa (ATCC 27853); assay: microbe, parasite or virus in culture; type: cell-based
Procedure: as §1

[5] = test system: C. parapsilosis clinical strains; assay: MIC, clinical yeast strains; type: cell-based, Candida parapsilosis; set-up: unit: µg/ml
Procedure: as §1
(§2) Clinical strains of yeasts including Candida albicans, C. glabrata, C. parapsilosis and C. quillermondiae were also tested with the 12 Chain peptides. The minimum inhibitory concentration (MICs) varied between these peptides and are presented in Tables 4a, 4b, 4c and 5a, 5b, 5c. Peptides Chain 105, 201 and 308 are broad spectrum antimicrobials with MICs between 0.5-32 μg/ml against all the bacteria and yeasts tested, except Serratia marcescens and Proteus mirabilis, against which the MICs were between 64-128 μg/ml. Peptide Chain 306 has narrow spectrum activity against E. coli at 1 μg/ml and for the rest of the bacterial strains at >32 μg/ml (FIG. 10c).

[6] = test system: C. quillermondiae clinical strains; assay: MIC, clinical yeast strains; type: cell-based, Candida quillermondiae; set-up: unit: μg/ml; conditions: C. quillermondiae clinical yeast strain 1
Procedure: as §1, §2

[7] = test system: C. glabrata clinical strains; assay: MIC, clinical yeast strains; type: cell-based, Candida glabrata; set-up: unit: µg/ml
Procedure: as §1, §2

[8] = test system: Candida albicans clinical strains; assay: MIC, clinical yeast strains; type: cell-based; set-up: unit: μg/ml
Procedure: as §1, §2

Row | Compound | Minimum inhibitory concentration, Klebsiella pneumoniae (ATCC 10031) [1] | Minimum inhibitory concentration, Staphylococcus aureus (ATCC 25923) [2] | Minimum inhibitory concentration, Escherichia coli (ATCC 25922) [3] | Minimum inhibitory concentration, Pseudomonas aeruginosa (ATCC 27853) [4] | other results
1 | RLKWFWLRKLK [Chain305] | 64 µg/mL | 64 µg/mL | 128 µg/mL | 16 µg/mL | –
2 | RRIVKLRWFKR [Chain203] | >128 µg/mL | >128 µg/mL | 32 µg/mL | >128 µg/mL | –
3 | IWKRFRLFKKR [Chain303] | >128 µg/mL | >128 µg/mL | 64 µg/mL | >128 µg/mL | –
4 | WIRLHWKRLRK [Chain106] | >128 µg/mL | >128 µg/mL | >128 µg/mL | 64 µg/mL | –
5 | KLKWFWLFKKR [Chain311] | 32 µg/mL | 32 µg/mL | 16 µg/mL | 8 µg/mL | –
6 | RKIVKKRTFKR [Chain202] | >128 µg/mL | >128 µg/mL | >128 µg/mL | 1 µg/mL | –
7 | IWKRFRLFKKW [Chain304] | 64 µg/mL | 32 µg/mL | 16 µg/mL | 8 µg/mL | –
8 | DCWSAMIRLHAKYNQV [Chain100] | >128 µg/mL | >128 µg/mL | >128 µg/mL | >128 µg/mL | –
9 | KKRLHRKRLRK [Chain102] | >128 µg/mL | >128 µg/mL | >128 µg/mL | >128 µg/mL | –
10 | WRIVRWRKLKR [Chain209] | >128 µg/mL | >128 µg/mL | 64 µg/mL | >128 µg/mL | –
11 | C[C@@H]1[C@H](O)[C@@H](C)/C=C/C=C/C=C/C=C/C=C/C=C/C=C/[C@H](O[C@@H]2O[C@H](C)[C@@H](O)[C@H](N)[C@@H]2O)C[C@@H]2O[C@](O)(C[C@@H](O)C[C@@H](O)[C@H](O)CC[C@@H](O)C[C@@H](O)CC(=O)O[C@H]1C)C[C@H](O)[C@H]2C(=O)O [Amphotericin B] | – | – | – | – | Minimum inhibitory concentration ([5]; C. parapsilosis clinical yeast strain 1): 2; Minimum inhibitory concentration ([5]; C. parapsilosis clinical yeast strain 2): 2; Minimum inhibitory concentration ([5]; C. parapsilosis clinical yeast strain 3): 2; Minimum inhibitory concentration ([5]; C. parapsilosis clinical yeast strain 4): 2; Minimum inhibitory concentration [6]: 2; Minimum inhibitory concentration ([7]; C. glabrata clinical yeast strain 1): 4; Minimum inhibitory concentration ([7]; C. glabrata clinical yeast strain 2): 4; Minimum inhibitory concentration ([7]; C. glabrata clinical yeast strain 3): 2; Minimum inhibitory concentration ([7]; C. glabrata clinical yeast strain 4): 4; Minimum inhibitory concentration ([8]; Candida albicans clinical yeast strain 1): 2; Minimum inhibitory concentration ([8]; Candida albicans clinical yeast strain 2): 0.5; Minimum inhibitory concentration ([8]; Candida albicans clinical yeast strain 3): 2; Minimum inhibitory concentration ([8]; Candida albicans clinical yeast strain 4): 2; Minimum inhibitory concentration ([8]; Candida albicans clinical yeast strain 5): 2
12 | CN(C)[C@@H]1C(O)=C(C(N)=O)C(=O)[C@@]2(O)C(O)=C3C(=O)c4c(O)cccc4[C@@](C)(O)[C@H]3C[C@@H]12 [Tetracycline, reference compound] | – | – | – | – | MIC ([1]; Klebsiella pneumoniae, ATCC10031, read-out: Minimum inhibitory concentration, Klebsiella pneumoniae (ATCC 10031)): 2 µg/mL (≈ 4.5 µM); MIC ([2]; Staphylococcus aureus, ATCC25923, read-out: Minimum inhibitory concentration, Staphylococcus aureus (ATCC 25923)): 2 µg/mL (≈ 4.5 µM); MIC ([3]; Escherichia coli, ATCC25922, read-out: Minimum inhibitory concentration, Escherichia coli (ATCC 25922)): 8 µg/mL (≈ 18 µM); MIC ([4]; Pseudomonas aeruginosa, ATCC27853, read-out: Minimum inhibitory concentration, Pseudomonas aeruginosa (ATCC 27853)): 32 µg/mL (≈ 72 µM)
13 | IIKRFRLFKKL [Chain301] | >128 µg/mL | >128 µg/mL | 64 µg/mL | 64 µg/mL | –
14 | ILKRWWLFKKL [Chain302] | >128 µg/mL | 128 µg/mL | >128 µg/mL | 16 µg/mL | –
15 | WWRLHAKRKLW [Chain108] | >128 µg/mL | >128 µg/mL | >128 µg/mL | >128 µg/mL | –
16 | KRIVRWRTRKR [Chain205] | >128 µg/mL | >128 µg/mL | 64 µg/mL | >128 µg/mL | –
17 | WRIVQWRKLKR [Chain210] | >128 µg/mL | >128 µg/mL | >128 µg/mL | >128 µg/mL | –
18 | KIRLHRKRLRK [Chain101] | >128 µg/mL | >128 µg/mL | >128 µg/mL | >128 µg/mL | –
19 | WRKWFWLFKKR [Chain309] | 64 µg/mL | 32 µg/mL | 32 µg/mL | 8 µg/mL | –
20 | KLRLHAKRLRK [Chain103] | >128 µg/mL | >128 µg/mL | >128 µg/mL | >128 µg/mL | –
21 | KRIVRWRKLKRK [Chain207] | >128 µg/mL | >128 µg/mL | >128 µg/mL | >128 µg/mL | –
22 | KRIVRWRWRKR [Chain206] | >128 µg/mL | >128 µg/mL | 16 µg/mL | >128 µg/mL | –
23 | RLKRFRLFRKRK [Chain313] | >128 µg/mL | >128 µg/mL | 32 µg/mL | 64 µg/mL | –
24 | WWRLHAKKKLW [Chain107] | >128 µg/mL | >128 µg/mL | 64 µg/mL | >128 µg/mL | –
25 | KLKKFKLFKKR [Chain312] | >128 µg/mL | >128 µg/mL | >128 µg/mL | >128 µg/mL | –
26 | YDKGFGLFKKM [Chain300] | >128 µg/mL | >128 µg/mL | >128 µg/mL | >128 µg/mL | –
27 | WRILRWRKLKR [Chain208] | >128 µg/mL | >128 µg/mL | 32 µg/mL | 32 µg/mL | –
